Data reported in US6737407B1, “Treatment of obesity” (Metabolic Pharmaceuticals, Ltd., priority 1997, dated 2004).
Where no end group is shown, it is not given here.

Columns and labels:
Porcine adipose Tissue = experiment: Lipolytic activity in porcine adipose tissue; format: cell-based, pig; conditions: 0.5 μM peptide
Description: (§1) Adipose tissues were removed from animals and sliced into segments of approximately 200 mg each. Then the tissues were pre-incubated in 25 ml vials containing 2 ml of Krebs-Ringerbicarbonate (KRB) buffer, 4% defatted BSA and 5.5 mM glucose under an atmosphere of carbogen (95%O2/ 5%CO2) at 37° C. for 1 hour. Tissues were then transferred to another vials with fresh medium and the incubation was initiated by adding hGH 177-191 peptide or analogues into the vials. The mixtures were then incubated at 37° C. for 90 minutes. After incubation, the tissues wee removed and aliquots (200 μl) of samples withdrawn from the medium were assayed for the contents of glycerol or free fatty acid (FFA) either by the enzyme assay (glycerol kinase) or calorimetric (copper-dye) spectrometry. The NADH or color produced was then monitored by the absorption at 340 nm and 610 nm, respectively.
Since corresponding sequences of non-human mammals are effectively peptide variants of the human sequence, it is also therefore expected that those corresponding sequences will be effective in other mammals including humans.

[1] = tested on: Zucker fatty (fa/fa) rats; experiment: Chronic treatment of Zucker fatty rats: body weight gain and food consumption; format: in vivo, rat; conditions: throughout the treatment period
Description: Animals were given a daily intraperitoneal injection of either saline or the peptide (500 μg/kg body weight) (3A) or implanted intradermally with a slow-release tablet (500 μg/day/kg body weight) in the lower quadrant of the abdomen of the animals. The control group was implanted with a placebo tablet in the same manner. Each point represents the mean±SEM of 6 animals.
The treatment for the four groups of animals was as described in FIGS. 3A & 3B. Each point represents the mean±SEM of 6 animals.
The animals of the same age and same sex were randomly divided into two groups, housed 6 per cage and maintained on a normal 12-hr light/dark cycle at a constant room temperature of 25° C. in the animal house of the Department of Biochemistry and—Molecular Biology, Monash University, Clayton, Australia. Animals were fed ad libitum on pre-determined quantity of animal pellets (Clark King, Melboume, Australia) and allowed free access to water at all times. […] The body weight and food intake were monitored for the periods of time as indicated.
Cumulative weight gain and food consumption were determined at 3-day intervals by the measurements of body weight and uneaten food remaining in the cages. […]

[2] = tested on: adipose tissue of the C57BL/6J (ob/ob) mice; experiment: Ex vivo lipolysis in adipose tissue of treated ob/ob mice (glycerol release); set-up: species or system mouse; conditions: both sexes, ob/ob mice after 18-day treatment
Description: FIGS. 6A & 6B depict the ex vivo effect on lipolysis in adipose tissue of the C57BL/6J (ob/ob) male mice (6A) and female mice (6B) after 18-days treatment with hGH 177-191. […] Values are mean±SEM of 12 determinations from 6 animals of each group. The differences between the hGH 177-191 treated and saline control groups were statistically significant.
as §1

[3] = tested on: adipose tissues of the C57BL/6J (ob/ob) mice; experiment: Ex vivo lipogenesis in adipose tissues of treated ob/ob mice ([C14]-glucose incorporated into lipid); set-up: species or system mouse
Source text: FIGS. 5A & 5B depict the ex vivo effect on lipogenesis in adipose tissues of the C57BL/6J (ob/ob) male mice (5A) and female mice (5B) after 18-day treatment with hGH 177-191. […] The differences between the hGH 177-191 treated and saline control groups were statistically significant.
The procedure for the isolation and measurement of intact epididymal fat pads was established in previous studies of epididymal growth of GH-deficient (lit/lit) mice. In the present study, white adipose tissues, either whole epididymal or parametrical fat pads, were excised with the identical techniques as previously described^22 from the mice immediately after sacrifice. The tissues were washed in cold physiological saline, blotted and weighed. For ex vivo lipogenic assays, the portions of adipose tissues without blood vessels were used.
The rate of the incorporation of exogenous [C^14]-glucose into total lipid in adipose tissue was measured as the index of anti-lipogenic activity of hGH 177-191.
Adipose tissues were sliced into segments of approximately 200 mg each and then placed in Krebs-Ringer bicarbonate (KRB) buffer (pH 7.4) containing 2% defatted BSA, and glucose (0.1 mg/ml) and gassed with 95% O2-5% CO2 at 37° C. […] The [C^14] radioactivity was measured with a liquid scintillation counter. The rates of total lipid synthesis were expressed as μmol [C^14]-glucose incorporated into lipid/g tissue/hr.

LRIVQCRSVEGSCGF (cysteine pairing not given here) [Ref No. 9401]
Glycerol released (Porcine adipose Tissue): 1300 ± 160 nmol/mg tissue/hour
food consumption (in words) [1]: unchanged
lipolytic activity in adipose tissues of treated animals (in words) [2]: increase significantly
tissue lipogenic activity ([C14]-glucose incorporated into lipid) ([3]; female ob/ob mice after 18-day treatment): 2.99±0.21 pmol/mg tissue/min
tissue lipogenic activity ([C14]-glucose incorporated into lipid) ([3]; male ob/ob mice after 18-day treatment): 2.33±0.21 pmol/mg tissue/min
